{
  "source": "ChEMBL document CHEMBL5380833",
  "about": "(J Med Chem, 2023)",
  "key": {"[1]": {"target": "T1, Protein cereblon/Tyrosine-protein kinase ITK/TSK (Homo sapiens, UniProt Q08881+Q96SW2)", "experiment": "PROTAC activity at CRBN/ITK in Jurkat cells assessed as induction of ITK degradation at 100 nM pretreated with GNE-9822 for 1 hr followed by compound addition and measured after 2 hrs by Western blot analysis", "format": "cell-based"}, "[2]": {"tested_on": "Jurkat", "experiment": "Inhibition of TCR signalling in human Jurkat cells assessed as reduction in ERK(T202/Y204) phosphorylation preincubated with cells for 12 hrs followed by anti-CD-2 antibody stimulation for 5 mins by Western blot analysis", "format": "cell-based", "conditions": "dose 0.01-3 µM"}, "[3]": {"experiment": "MRT last in Balb/c mouse at 10 mg/kg, ip measured upto 24 hrs by LC-MS/MS analysis", "format": "ADME, organism-based", "conditions": "in vivo"}, "[4]": {"experiment": "Toxicity in Balb/c mouse assessed as drug tolerance at 5 mg/kg, iv measured upto 24 hrs by LC-MS/MS analysis", "format": "organism-based", "conditions": "in vivo"}, "[5]": {"target": "T1, Protein cereblon/Tyrosine-protein kinase ITK/TSK", "experiment": "PROTAC activity at CRBN/ITK in human Jurkat cells assessed as induction of ITK degradation by Western blot analysis", "format": "cell-based", "conditions": "read-out: EC50"}, "[6]": {"target": "T2, Tyrosine-protein kinase TXK (Homo sapiens) (UniProt P42681)", "T2 sequence (whole entry)": "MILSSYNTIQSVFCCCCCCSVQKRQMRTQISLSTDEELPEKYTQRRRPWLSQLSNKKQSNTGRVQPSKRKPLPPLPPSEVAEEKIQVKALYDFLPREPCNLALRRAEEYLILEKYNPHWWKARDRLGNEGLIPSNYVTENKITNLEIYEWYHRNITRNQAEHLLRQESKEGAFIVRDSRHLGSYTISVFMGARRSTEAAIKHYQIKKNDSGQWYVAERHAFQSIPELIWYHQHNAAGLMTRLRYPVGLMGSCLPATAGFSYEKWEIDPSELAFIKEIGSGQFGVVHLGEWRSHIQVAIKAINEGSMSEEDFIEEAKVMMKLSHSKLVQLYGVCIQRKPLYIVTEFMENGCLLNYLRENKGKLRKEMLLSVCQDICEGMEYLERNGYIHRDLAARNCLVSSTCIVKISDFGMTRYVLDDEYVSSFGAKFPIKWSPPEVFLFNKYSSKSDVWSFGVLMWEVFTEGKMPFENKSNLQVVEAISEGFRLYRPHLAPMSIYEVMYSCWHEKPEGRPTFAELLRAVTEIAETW", "experiment": "Induction of degradation of RLK in human Jurkat cells at 0.01 to 10 uM by immunoblotting analysis", "format": "cell-based", "conditions": "dose 0.01-10 µM"}, "[7]": {"target": "T1, Protein cereblon/Tyrosine-protein kinase ITK/TSK", "experiment": "PROTAC activity at CRBN/ITK in human Jurkat cells assessed as induction of ITK degradation at 100 nM pretreated with proteosome inhibitor carfilzomib for 1 hr followed by compound addition and measured after 2 hrs by Western blot analysis", "format": "cell-based"}, "[8]": {"experiment": "Clearance in Balb/c mouse at 10 mg/kg, ip measured upto 24 hrs by LC-MS/MS analysis", "format": "ADME, organism-based", "conditions": "in vivo"}, "[9]": {"experiment": "AUC (0 to infinity) in Balb/c mouse at 10 mg/kg, ip measured upto 24 hrs by LC-MS/MS analysis", "format": "ADME, organism-based", "design": "dose 10 mg/kg, time < 24 hrs, route ip", "conditions": "in vivo"}, "[10]": {"experiment": "Toxicity in Balb/c mouse assessed as drug tolerance at 10 mg/kg, ip measured upto 24 hrs by LC-MS/MS analysis", "format": "organism-based", "conditions": "in vivo"}, "[11]": {"target": "T1, Protein cereblon/Tyrosine-protein kinase ITK/TSK", "experiment": "PROTAC activity at CRBN/ITK in human Jurkat cells assessed as residual activity at 10 uM incubated for 16 hrs relative to control", "format": "cell-based"}, "[12]": {"experiment": "AUC (0 to t) in Balb/c mouse at 10 mg/kg, ip measured upto 24 hrs by LC-MS/MS analysis", "format": "ADME, organism-based", "design": "time < 24 hrs, dose 10 mg/kg, route ip", "conditions": "in vivo"}, "[13]": {"target": "T1, Protein cereblon/Tyrosine-protein kinase ITK/TSK", "experiment": "PROTAC activity at CRBN/ITK in human Jurkat cells assessed as induction of ITK degradation at 100 nM measured after 2 hrs by Western blot analysis", "format": "cell-based"}, "[14]": {"experiment": "Volume of distribution at steady state in Balb/c mouse at 10 mg/kg, ip measured upto 24 hrs by LC-MS/MS analysis", "format": "ADME, organism-based", "conditions": "in vivo"}, "[15]": {"experiment": "Toxicity in Balb/c mouse assessed as side effects at 10 mg/kg, ip measured upto 24 hrs by LC-MS/MS analysis", "format": "organism-based", "conditions": "in vivo"}, "[16]": {"target": "Interleukin-2 (Homo sapiens, UniProt P60568)", "sequence (P60568 whole entry)": "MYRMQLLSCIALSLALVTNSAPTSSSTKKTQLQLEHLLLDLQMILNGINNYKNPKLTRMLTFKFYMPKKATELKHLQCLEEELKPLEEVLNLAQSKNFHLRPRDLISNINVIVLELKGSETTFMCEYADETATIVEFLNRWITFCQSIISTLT", "experiment": "Inhibition of IL-2 in human Jurkat cells pretreated with compound for 4 hrs followed by anti-CD3/CD28 stimulation by ELISA analysis", "format": "cell-based"}, "[17]": {"experiment": "AUC (0 to infinity) in Balb/c mouse at 5 mg/kg, iv measured upto 24 hrs by LC-MS/MS analysis", "format": "ADME, organism-based", "design": "time < 24 hrs, dose 5 mg/kg, route iv", "conditions": "in vivo"}, "[18]": {"target": "Tyrosine-protein kinase Tec (Homo sapiens) (UniProt P42680)", "sequence (P42680 whole entry, looked up)": "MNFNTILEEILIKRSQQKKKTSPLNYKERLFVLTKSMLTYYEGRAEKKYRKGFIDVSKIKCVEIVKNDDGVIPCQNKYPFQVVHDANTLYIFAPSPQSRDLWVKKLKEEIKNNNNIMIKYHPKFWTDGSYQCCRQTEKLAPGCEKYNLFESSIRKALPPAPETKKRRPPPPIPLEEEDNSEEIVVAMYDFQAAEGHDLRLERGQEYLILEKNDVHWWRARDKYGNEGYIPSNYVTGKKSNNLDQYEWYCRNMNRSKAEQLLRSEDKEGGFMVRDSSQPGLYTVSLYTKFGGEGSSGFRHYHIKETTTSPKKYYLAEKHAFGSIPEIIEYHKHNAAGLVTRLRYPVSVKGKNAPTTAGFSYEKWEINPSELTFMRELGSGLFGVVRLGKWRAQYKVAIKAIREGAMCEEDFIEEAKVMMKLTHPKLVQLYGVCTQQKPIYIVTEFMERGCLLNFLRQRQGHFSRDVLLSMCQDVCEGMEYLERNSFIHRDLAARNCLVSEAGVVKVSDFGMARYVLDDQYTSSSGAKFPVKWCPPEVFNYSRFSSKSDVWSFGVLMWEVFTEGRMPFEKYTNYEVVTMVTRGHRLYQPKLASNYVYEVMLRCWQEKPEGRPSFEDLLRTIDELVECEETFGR", "experiment": "Induction of degradation of TEC in human Jurkat cells at 0.01 to 10 uM by immunoblotting analysis", "conditions": "dose 0.01-10 µM"}, "[19]": {"target": "T1, Protein cereblon/Tyrosine-protein kinase ITK/TSK", "experiment": "PROTAC activity at CRBN/ITK in human Jurkat cells assessed as maximum degradation at 0.01 to 10 uM by Western blot analysis relative to control", "format": "cell-based", "conditions": "dose 0.01-10 µM"}, "[20]": {"target": "T1, Protein cereblon/Tyrosine-protein kinase ITK/TSK", "experiment": "PROTAC activity at CRBN/ITK in human Jurkat cells assessed as induction of ITK degradation at 100 nM pretreated with MLN4924 for 1 hr followed by compound addition and measured after 2 hrs by Western blot analysis", "format": "cell-based"}, "[21]": {"experiment": "Cmax in Balb/c mouse at 5 mg/kg, iv measured upto 24 hrs by LC-MS/MS analysis", "format": "ADME, organism-based", "design": "time < 24 hrs, dose 5 mg/kg, route iv", "conditions": "in vivo"}, "[22]": {"experiment": "MRT last in Balb/c mouse at 5 mg/kg, iv measured upto 24 hrs by LC-MS/MS analysis", "format": "ADME, organism-based", "conditions": "in vivo, iv, 5 mg/kg, 24 h"}, "[23]": {"experiment": "Half life in Balb/c mouse at 10 mg/kg, ip measured upto 24 hrs by LC-MS/MS analysis", "format": "ADME, organism-based", "conditions": "in vivo"}, "[24]": {"target": "Tyrosine-protein kinase BTK (Homo sapiens) (UniProt Q06187)", "sequence (Q06187 whole entry)": "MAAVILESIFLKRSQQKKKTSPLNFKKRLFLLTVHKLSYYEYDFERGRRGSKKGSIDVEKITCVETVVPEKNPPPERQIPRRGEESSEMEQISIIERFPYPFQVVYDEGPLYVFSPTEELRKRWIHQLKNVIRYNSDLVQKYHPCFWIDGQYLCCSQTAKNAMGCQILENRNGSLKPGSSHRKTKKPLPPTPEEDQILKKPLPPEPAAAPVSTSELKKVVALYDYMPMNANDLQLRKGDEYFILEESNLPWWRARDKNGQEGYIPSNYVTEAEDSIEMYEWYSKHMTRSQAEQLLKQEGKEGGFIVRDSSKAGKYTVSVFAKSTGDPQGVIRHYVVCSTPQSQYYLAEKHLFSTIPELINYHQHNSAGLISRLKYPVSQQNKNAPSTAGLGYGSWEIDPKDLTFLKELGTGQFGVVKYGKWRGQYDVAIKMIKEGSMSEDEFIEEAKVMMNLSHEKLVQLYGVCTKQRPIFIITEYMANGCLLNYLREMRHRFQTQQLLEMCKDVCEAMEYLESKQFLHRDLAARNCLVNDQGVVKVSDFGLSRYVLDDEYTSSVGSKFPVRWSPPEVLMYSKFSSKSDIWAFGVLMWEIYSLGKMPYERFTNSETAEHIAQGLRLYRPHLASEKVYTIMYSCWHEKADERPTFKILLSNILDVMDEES", "experiment": "Induction of degradation of BTK in human Ramos cells at 0.01 to 10 uM by immunoblotting analysis", "format": "cell-based", "conditions": "dose 0.01-10 µM"}, "[25]": {"experiment": "Toxicity in Balb/c mouse assessed as side effects at 5 mg/kg, iv measured upto 24 hrs by LC-MS/MS analysis", "format": "organism-based", "conditions": "in vivo"}, "[26]": {"target": "T1, Protein cereblon/Tyrosine-protein kinase ITK/TSK", "experiment": "PROTAC activity at CRBN/ITK in human Jurkat cells assessed as downregulation of ITK protein at 100 nM preincubated with cells for 12 hrs followed by compound washout measured after 24 hrs", "format": "cell-based"}, "[27]": {"target": "Tyrosine-protein kinase Yes (Homo sapiens) (UniProt P07947)", "sequence (P07947 2-543 limits assumed)": "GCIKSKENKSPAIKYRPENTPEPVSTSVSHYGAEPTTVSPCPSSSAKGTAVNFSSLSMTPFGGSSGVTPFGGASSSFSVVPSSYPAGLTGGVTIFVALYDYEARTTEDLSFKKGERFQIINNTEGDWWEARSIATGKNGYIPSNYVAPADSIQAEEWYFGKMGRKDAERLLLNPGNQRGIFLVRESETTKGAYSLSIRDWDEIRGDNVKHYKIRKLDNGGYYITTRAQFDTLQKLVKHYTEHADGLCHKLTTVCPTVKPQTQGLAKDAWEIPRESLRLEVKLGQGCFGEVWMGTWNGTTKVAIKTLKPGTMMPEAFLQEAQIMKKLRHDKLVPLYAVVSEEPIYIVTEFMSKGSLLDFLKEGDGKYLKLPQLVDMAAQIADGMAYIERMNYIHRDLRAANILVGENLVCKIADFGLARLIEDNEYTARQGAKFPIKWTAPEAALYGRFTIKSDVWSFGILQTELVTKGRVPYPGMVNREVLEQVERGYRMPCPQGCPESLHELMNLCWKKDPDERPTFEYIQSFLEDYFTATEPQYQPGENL", "experiment": "Induction of degradation of YES in human Ramos cells at 0.01 to 10 uM by immunoblotting analysis", "format": "cell-based", "conditions": "dose 0.01-10 µM"}, "[28]": {"target": "Tyrosine-protein kinase Lck (Homo sapiens) (UniProt P06239)", "sequence (P06239 2-509 limits assumed)": "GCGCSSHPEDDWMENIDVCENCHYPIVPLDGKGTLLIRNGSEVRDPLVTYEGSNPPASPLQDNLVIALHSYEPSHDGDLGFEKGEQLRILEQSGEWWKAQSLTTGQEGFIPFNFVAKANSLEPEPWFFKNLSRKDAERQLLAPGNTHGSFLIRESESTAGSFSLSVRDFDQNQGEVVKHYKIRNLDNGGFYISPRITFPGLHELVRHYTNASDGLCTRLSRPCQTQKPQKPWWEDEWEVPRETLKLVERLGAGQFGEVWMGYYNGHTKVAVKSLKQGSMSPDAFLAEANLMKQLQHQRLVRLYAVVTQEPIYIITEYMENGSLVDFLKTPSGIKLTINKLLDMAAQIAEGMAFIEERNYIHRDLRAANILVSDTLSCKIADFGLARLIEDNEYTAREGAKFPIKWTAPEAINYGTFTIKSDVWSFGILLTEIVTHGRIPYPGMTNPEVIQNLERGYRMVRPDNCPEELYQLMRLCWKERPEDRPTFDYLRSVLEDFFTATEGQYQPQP", "experiment": "Induction of degradation of LCK in human Jurkat cells at 0.01 to 10 uM by immunoblotting analysis", "format": "cell-based", "conditions": "dose 0.01-10 µM"}, "[29]": {"tested_on": "Jurkat", "experiment": "Inhibition of TCR signalling in human Jurkat cells assessed as reduction in PLCgamma1 phosphorylation preincubated with cells for 12 hrs followed by anti-CD-2 antibody stimulation for 5 mins by Western blot analysis", "format": "cell-based", "conditions": "dose 0.01-3 µM"}, "[30]": {"target": "T1, Protein cereblon/Tyrosine-protein kinase ITK/TSK", "experiment": "PROTAC activity at CRBN/ITK in human Jurkat cells assessed as reduction in ITK protein at 100 nM measured within 4 hrs", "format": "cell-based"}},
  "note": "Activity calls are given as the source filed them. The calls are words filed in the database; no cut-off is given here.",
  "data": [
    {"smiles": "CN(CCCCCC(=O)Nc1ccc2c(c1)C(=O)N(C1CCC(=O)NC1=O)C2=O)CC[C@@H](c1ccccc1)n1cc(NC(=O)c2n[nH]c3c2CCC(C)(C)C3)cn1.O=C(O)C(F)(F)F", "note": "(stereo not given in full)", "values": [
      {"measurement": "Activity", "setting": "[1]", "value": "inactive"},
      {"measurement": "inhibition", "setting": "[2]", "value": "Dose-Dependent Effect"},
      {"measurement": "MRT last at 24 h", "setting": "[3]", "value": 1.06, "unit": "h"},
      {"measurement": "Activity", "setting": "[4]", "value": "Non-Toxic"},
      {"measurement": "EC50", "setting": "[5]", "value": 7, "unit": "nM"},
      {"measurement": "Activity", "setting": "[6]", "value": "inactive"},
      {"measurement": "Activity", "setting": "[7]", "value": "inactive"},
      {"measurement": "CL/F", "setting": "[8]", "value": 109, "unit": "mL/min/kg"},
      {"measurement": "AUC(0-inf)", "setting": "[9]", "value": 1590, "unit": "ng·h/mL"},
      {"measurement": "Activity", "setting": "[10]", "value": "Non-Toxic"},
      {"measurement": "Activity", "setting": "[11]", "value": 12, "unit": "%"},
      {"measurement": "AUC(0-t) at 24 h", "setting": "[12]", "value": 1560, "unit": "ng·h/mL"},
      {"measurement": "Activity", "setting": "[13]", "value": "Active"},
      {"measurement": "Vdss", "setting": "[14]", "value": 18.4, "unit": "L/kg"},
      {"measurement": "Activity", "setting": "[15]", "value": "Non-Toxic"},
      {"measurement": "EC50", "setting": "[16]", "value": 25.3, "unit": "nM"},
      {"measurement": "AUC(0-inf)", "setting": "[17]", "value": 1080, "unit": "ng·h/mL"},
      {"measurement": "Activity", "setting": "[18]", "value": "inactive"},
      {"measurement": "Emax", "setting": "[19]", "value": 99, "unit": "%"},
      {"measurement": "Activity", "setting": "[20]", "value": "inactive"},
      {"measurement": "Cmax", "setting": "[21]", "value": 3320, "unit": "ng/mL"},
      {"measurement": "MRTlast", "setting": "[22]", "value": 0.39, "unit": "h"},
      {"measurement": "half-life", "setting": "[23]", "value": 1.95, "unit": "h"},
      {"measurement": "Activity", "setting": "[24]", "value": "inactive"},
      {"measurement": "Activity", "setting": "[25]", "value": "Non-Toxic"},
      {"measurement": "Activity", "setting": "[26]", "value": "Active"},
      {"measurement": "Activity", "setting": "[27]", "value": "inactive"},
      {"measurement": "Activity", "setting": "[28]", "value": "inactive"},
      {"measurement": "inhibition", "setting": "[29]", "value": "Dose-Dependent Effect"},
      {"measurement": "Activity", "setting": "[30]", "value": "Active"}
    ]}
  ]
}
